Reference: patent US9468209B2, “Method for eradicating weeds with derivatives of 3-acetyl-5-sec-butyl-4-hydroxy-3-pyrrolin-2-one” (priority 2012, dated 2016)

Legend:
[1] = test system: monocotyledon weeds (such as common crabgrass and barnyardgrass) and dicotyledonous weeds including Crofton weeds; settings: concentration of 50 μg/mL; cited from earlier work
Hill reaction [2] = settings: versus 3-(3,4-dichlorophenyl)-1,1-dimethylurea (DCMU); cited from earlier work
rat = settings: called moderate toxicity; cited from earlier work
photosystem II = test: PSII oxygen evolution / electron transfer activity of treated Crofton weed leaves; assay type: biochemical; settings: 50 μg/mL, strong light 12 hours
Protocol: (§1) Compounds 10-57 were dissolved in small amount of methanol. The solutions were then diluted with distilled water to a concentration of 50 μg/mL. A mixture of methanol and water in the same ratio as the sample solution was also prepared and used as control in the experiment. The healthy leaves of Crofton weed were washed in water for 30 minutes and then rinsed with distilled water. The clean and tissue dried leaves were placed in petri dish with the back-side of the leaves facing up. Wet filter paper was also placed in the in petri dish for moisture control. Water, methanol and chemical solutions of the analogues were applied to the back-side of each leaf. Test sample was then placed in vacuum chamber at 25° C. for 15 min followed by exposure to the strong light (400 μM m^−2 s^−1) for 12 hours. The leaf sample went through a series of test, and the Hill reaction rate, the electron transfer activity and fluorescence of chlorophyll were measured. Four leaves were used for each treatment and each test was repeated three times.

Hill reaction [3] = test: Hill reaction activity of treated Crofton weed leaves; assay type: biochemical; settings: 50 μg/mL, strong light 12 hours
Protocol: as §1

Crofton weed [4] = test: Spray on leaves and stems of three-leaf-stage Crofton weed seedlings grown in pots in a greenhouse; assay type: in vivo; parameters: key: 4: Plant completely dead; 3: Two thirds of the plant stems and leaves dried out; 2: Half of the plant stems and leaves dried out; 1: One third of the plant stems and leaves dried out; 0: No damage at all; settings: 50 μg/mL spray, assessed two days later
Protocol: Compounds 1, 2, 3, and 40 were separately dissolved in a small amount of methanol. The solutions were then diluted with distilled water to a concentration of 50 μg/mL. A mixture of methanol and water in the same ratio as the sample solution was also prepared and used as control in the experiment. The solutions were sprayed on leaves and stems of three-leaf-stage Crofton weed seedlings. All the plants were grown in pot in a greenhouse. The leaves were properly wet by the solutions for consistency and the treatment was repeated 3 times. The measurement of the plant damage was calculated by the formula: Damage Index=Σ(damage level×number of plants)×100/4/number of plants in each treatment.

[5] = test system: fluorescence of chlorophyll; test: Fluorescence of chlorophyll of treated Crofton weed leaves; assay type: biochemical; settings: 50 μg/mL, strong light 12 hours
Protocol: as §1

Crofton weed [6] = test: Needle puncture pathogenic test on slightly wounded leaf of Crofton weed; assay type: in vivo; settings: Crofton weed leaf, analogs with formula (I) and (II)
Protocol: 3-acetyl-5-sec-butyl-4-hydroxy-3-pyrrolin-2-one analogs were dissolved in a small amount of methanol and diluted with water to a concentration of 5-100 μg/g. A pathogenic test was conducted by placing the toxic liquid on the slightly wounded leaf of Crofton weed with a needle. The test has shown that the pathogenic capability of 3-acetyl-5-sec-butyl-4-hydroxy-3-pyrrolin-2-one analogs with respect to Crofton weed increases with the increase of concentration. The spot diameter caused on the leaf of Crofton weed after 24 hours was 2 mm at 50 μg/g.
3-acetyl-5-sec-butyl-4-hydroxy-3-pyrrolin-2-one analogue (Table 3, compounds 10-57) was dissolved in small amount of methanol. The solution was then diluted with distilled water to a concentration of 50 μg/mL. Methanol solution with same concentration and pure distilled water were used as control of the experiment. A pathogenic test was conducted by placing the toxic liquid on the slightly wounded leaf of Crofton weed with a needle. The experiment was carried out at 25° C. under the natural light and each test was repeated 6 times. It was measure the diameter of the spot after 24 h. […] The size of the side chain also has an effect on their activity.
Fourteen salts of 3-acetyl-5-sec-butyl-4-hydroxy-3-pyrrolin-2-one analogs were dissolved in small amount of methanol and diluted with distilled water to a concentration of 50 μg/mL. Methanol/water mixture was also prepared and used as control. Needle puncture method was used for the test on the small pieces of Crofton weed. Each treatment was repeated six times or more. The test samples were kept under natural light at 25° C. for 24 hours. The diameters of damaged spot of the plant leaves were measured by vernier caliper.

Crofton weed [7] = test: Needle puncture test on Crofton weed with washes recovered from compound-treated soil; assay type: in vivo; settings: after soil treatment (3 hours)
Protocol: Compounds 1, 2, 3, and 40 were dissolved in small amount of methanol and diluted with distilled water to concentration of 50 μg/mL. The solution was sprayed to the soil sample until the soil was wet but not overflows. After standing at room temperature for 3 hours, the soil sample was washed with water and methanol. The wash solution was collected and concentrated. Such process was repeated three times. The concentrated solutions were used for herbicidal activity test using the method of needle puncture on Crofton weed. Methanol water solution and pure water were used as control. The experiment for every sample was repeated six times. The spot diameters were measured with vernier caliper after the plant was kept under natural light at 25° C. for 24 hours (Table 11).

| SMILES | killing monocotyledon and dicotyledonous weeds [1] | inhibition to Hill reaction compared with DCMU (Hill reaction [2]) | toxicity to rat (rat) [mg/kg] | PSII Activity of oxygen evolution (photosystem II) [uMO2/mgChlh] | Activity of Hill Reaction (Hill reaction [3]) [uMO2/mgChlh] | Damage level (Crofton weed [4]) | Fv/Fm [5] | Avg. diameter of the spot after 24 h (Crofton weed [6]) [mm] | Time of disease spot to occur (Crofton weed [6]) [h] | Average diameter of the spot after 24 h, H2O wash (Crofton weed [7]) [mm] | Average diameter of the spot after 24 h, Methanol wash (Crofton weed [7]) [mm] |
| --- | --- | --- | --- | --- | --- | --- | --- | --- | --- | --- | --- |
| CCC(C)C1NC(=O)C(C(C)=O)=C1O (stereo not shown) [3-acetyl-5-sec-butyl-4-hydroxy-3-pyrrolin-2-one] | very effective | much higher than the typical photosynthetic inhibitor | 200 |  |  |  |  |  |  |  |  |
| CCCC(Cl)C1NC(=O)CC1=O (stereo not shown) [Compound 2] |  |  |  | 37.02 | 69.41 | 2 | 0.84 | 2.96 ± 0.01 | 22.0 ± 2.30 | 0.280 ± 0.030 | 0.362 ± 0.012 |
| CCC(C)C1NC(=O)C=C1O (stereo not shown) [Compound 3] |  |  |  | 32.14 | 62.21 | 1 | 0.83 | 2.31 ± 0.09 | 20.9 ± 1.01 | 0.273 ± 0.062 | 0.334 ± 0.082 |
